Several values for one entry are separate records, joined by “and”; a condition that tells them apart may be missing. Equal values may be shown once.
Biological target: T1, Adenosine receptor A3 (Homo sapiens, UniProt P0DMS8)
T1 sequence (P0DMS8 whole entry): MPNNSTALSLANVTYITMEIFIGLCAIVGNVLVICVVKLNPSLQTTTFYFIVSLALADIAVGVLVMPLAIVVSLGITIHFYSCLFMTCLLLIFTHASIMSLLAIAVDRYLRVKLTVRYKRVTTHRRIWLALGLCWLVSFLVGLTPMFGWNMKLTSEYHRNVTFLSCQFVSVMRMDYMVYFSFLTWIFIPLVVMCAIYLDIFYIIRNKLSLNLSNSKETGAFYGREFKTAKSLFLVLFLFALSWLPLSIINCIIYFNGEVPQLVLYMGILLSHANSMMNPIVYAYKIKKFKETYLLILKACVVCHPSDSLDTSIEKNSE

Structure (SMILES)	Ki
Nc1nc2ccc(Cl)cc2c2nc(-c3ccco3)nn12	122 nM
CCCCn1cc2c(nc(NC(=O)Nc3ccccc3)n3nc(-c4ccco4)nc23)n1	1.4 nM and 0.93 nM
CCCCC#Cc1nc(N)c2ncn([C@@H]3O[C@H](C(=O)NCC)[C@H](O)C3O)c2n1 (stereo partly drawn) [(2S,3R,5R)-5-[6-amino-2-(hex-1-yn-1-yl)-9H-purin-9-yl]-N-ethyl-3,4-dihydroxyoxolane-2-carboxamide]	750 nM and 740 nM

Further lines, results first:

Ki	Structure (SMILES)
> 10000 nM	Nc1nc2c(cnn2CCc2ccccc2)c2nc(-c3ccco3)nn12
1.7 nM and 1.5 nM	Cn1cc2c(nc(NC(=O)Nc3ccccc3)n3nc(-c4ccco4)nc23)n1
1.2 nM	CCn1cc2c(nc(NC(=O)Nc3ccccc3)n3nc(-c4ccco4)nc23)n1
1 nM and 0.53 nM	CCCn1cc2c(nc(NC(=O)Nc3ccccc3)n3nc(-c4ccco4)nc23)n1 [MRE 3055F20]
